Reference: the Kinase Knowledgebase extract (Sharma et al. 2016)

Each compound was assayed against EGFR (human) (UniProt P00533).
EGFR (human), sequence (P00533 whole entry, looked up): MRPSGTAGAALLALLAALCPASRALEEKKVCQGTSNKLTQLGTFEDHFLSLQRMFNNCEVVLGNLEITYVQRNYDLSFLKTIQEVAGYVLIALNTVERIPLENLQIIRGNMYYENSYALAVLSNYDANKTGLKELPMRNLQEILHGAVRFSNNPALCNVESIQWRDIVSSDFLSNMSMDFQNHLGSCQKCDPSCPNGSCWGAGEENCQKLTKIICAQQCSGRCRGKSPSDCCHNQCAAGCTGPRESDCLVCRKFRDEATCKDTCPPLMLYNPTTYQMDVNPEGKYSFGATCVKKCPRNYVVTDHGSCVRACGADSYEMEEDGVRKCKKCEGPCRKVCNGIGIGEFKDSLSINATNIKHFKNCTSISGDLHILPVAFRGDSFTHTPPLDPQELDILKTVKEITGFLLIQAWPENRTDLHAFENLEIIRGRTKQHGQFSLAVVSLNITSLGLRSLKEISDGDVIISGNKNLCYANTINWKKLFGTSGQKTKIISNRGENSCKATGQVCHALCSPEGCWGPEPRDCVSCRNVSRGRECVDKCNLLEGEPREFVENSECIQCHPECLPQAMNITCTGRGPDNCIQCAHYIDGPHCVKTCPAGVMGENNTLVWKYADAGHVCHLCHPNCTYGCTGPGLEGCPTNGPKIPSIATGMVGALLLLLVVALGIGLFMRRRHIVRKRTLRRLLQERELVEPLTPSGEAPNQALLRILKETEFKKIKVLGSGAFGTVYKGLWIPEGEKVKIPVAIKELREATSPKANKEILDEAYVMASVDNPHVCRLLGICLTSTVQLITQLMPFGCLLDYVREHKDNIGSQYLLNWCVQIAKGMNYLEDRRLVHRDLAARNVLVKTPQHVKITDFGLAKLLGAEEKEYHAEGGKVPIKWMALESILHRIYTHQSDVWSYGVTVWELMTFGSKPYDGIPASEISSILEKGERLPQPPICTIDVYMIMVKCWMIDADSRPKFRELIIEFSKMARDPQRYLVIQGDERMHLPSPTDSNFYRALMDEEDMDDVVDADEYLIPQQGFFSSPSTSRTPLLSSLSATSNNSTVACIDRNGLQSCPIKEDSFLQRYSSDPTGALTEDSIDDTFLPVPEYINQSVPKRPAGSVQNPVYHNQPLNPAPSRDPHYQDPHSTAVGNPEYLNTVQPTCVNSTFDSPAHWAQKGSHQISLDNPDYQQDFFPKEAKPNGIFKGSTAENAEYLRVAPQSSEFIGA
`CC(C)c1nc(-c2cccc(NS(=O)(=O)c3c(F)cccc3F)c2)c(-c2ccnc(Nc3ccc(N4CCCNCC4)nc3)n2)s1` showed an IC50 of less than 100 nM. `COc1cc(N2CCN(CCS(C)(=O)=O)CC2)c(C)cc1Nc1nccc(-c2sc(C)nc2-c2cccc(NS(=O)(=O)c3c(F)cccc3F)c2)n1` gave an IC50 of less than 100 nM. `COc1cc(CCN2CCCCC2)c(F)cc1Nc1nccc(-c2sc(C(C)C)nc2-c2cccc(NS(=O)(=O)c3c(F)cccc3F)c2)n1` was tested, and the IC50 was 100 to 1000 nM. `COc1cc(N2CCN(CCS(C)(=O)=O)CC2)c(C)cc1Nc1nccc(-c2scnc2-c2cccc(NS(=O)(=O)c3c(F)cccc3F)c2)n1` gave an IC50 of less than 100 nM. Work on `CCc1nc(-c2cccc(NS(=O)(=O)c3ccccc3)c2)c(-c2ccnc(Nc3ccc(OC)c(N4CCN(CCS(C)(=O)=O)CC4)c3)n2)s1` yielded an IC50 of 100 to 1000 nM. `CC(=O)N1CCc2cc(Nc3nccc(-c4sc(C(C)C)nc4-c4cccc(NS(=O)(=O)c5ccccc5)c4)n3)ccc21` gave an IC50 of 100 to 1000 nM. Work on `COc1cc(N2CCC3(CC2)CCN(S(C)(=O)=O)CC3)c(C)cc1Nc1nccc(-c2sc(C(C)C)nc2-c2cccc(NS(=O)(=O)c3c(F)cccc3F)c2F)n1` yielded an IC50 of 100 to 1000 nM. In the case of `CC(=O)N1CCN(c2ccc(Nc3nccc(-c4sc(C(C)C)nc4-c4cccc(NS(=O)(=O)C5CCCCC5)c4)n3)cn2)CC1`, the IC50 is reported as 100 to 1000 nM. Work on `CCNc1nc(-c2cccc(NS(=O)(=O)c3ccccc3)c2)c(-c2ccnc(Nc3ccc(OCCN4CCCC4)c(F)c3)n2)s1` yielded an IC50 of less than 100 nM. `CC(C)c1nc(-c2cc(F)cc(NS(=O)(=O)c3c(F)cccc3F)c2)c(-c2ccnc(Nc3ccc(N4CCOCC4)nc3)n2)s1` showed an IC50 of 100 to 1000 nM. In the case of `O=S(=O)(Nc1cc(-c2nc(N3CCOCC3)sc2-c2ccnc(Nc3ccc(N4CCOCC4)nc3)n2)ccc1F)c1c(F)cccc1F`, the IC50 is reported as 100 to 1000 nM. `CC(C)c1nc(-c2ccc(F)c(NS(=O)(=O)c3c(F)cccc3F)c2)c(-c2ccnc(Nc3ccc(N4CCOCC4)nc3)n2)s1` was tested, and the IC50 was 100 to 1000 nM. `COc1ccc(S(C)(=O)=O)cc1Nc1nccc(-c2sc(C(C)C)nc2-c2cccc(NS(=O)(=O)c3c(F)cccc3F)n2)n1` was tested, and the IC50 was 100 to 1000 nM. Compound `CN(C)c1nc(-c2ccc(F)c(NS(=O)(=O)c3c(F)cccc3F)c2)c(-c2ccnc(Nc3ccc(N4CCN(S(C)(=O)=O)CC4)nc3)n2)s1` has an IC50 of 100 to 1000 nM. `COc1cc(N2CCN(CCS(C)(=O)=O)CC2)c(C)cc1Nc1nccc(-c2sc(CC(C)C)nc2-c2cccc(NS(=O)(=O)c3c(F)cccc3F)c2)n1` showed an IC50 of less than 100 nM. `O=S(=O)(Nc1cc(-c2nc(N3CCOCC3)sc2-c2ccnc(Nc3ccc4c(c3)OCCO4)n2)ccc1F)c1c(F)cccc1F` gave an IC50 of 100 to 1000 nM. `COc1cc(N2CCN(CCS(C)(=O)=O)CC2)c(C)cc1Nc1nccc(-c2sc(C3CCOCC3)nc2-c2cccc(NS(=O)(=O)c3c(F)cccc3F)c2)n1` gave an IC50 of less than 100 nM. With `COc1cc(N2CCN(CCS(C)(=O)=O)CC2)c(C)cc1Nc1nccc(-c2sc(C(C)C)nc2-c2cccc(NS(=O)(=O)c3c(F)cccc3F)n2)n1` the IC50 was less than 100 nM. `CN(C)c1nc(-c2ccc(F)c(NS(=O)(=O)c3c(F)cccc3F)c2)c(-c2ccnc(Nc3ccc(N4CCOCC4)nc3)n2)s1` gave an IC50 of 100 to 1000 nM. Compound `Nc1nc(-c2ccc(F)c(NS(=O)(=O)c3c(F)cccc3F)c2)c(-c2ccnc(Nc3ccc(N4CCOCC4)nc3)n2)s1` has an IC50 of 100 to 1000 nM. Compound `CC(C)c1nc(-c2cccc(NS(=O)(=O)c3c(F)cccc3F)c2)c(-c2ccnc(Nc3ccc(N4CC[C@@H](O)C4)nc3)n2)s1` has an IC50 of 100 to 1000 nM. In the case of `COc1cc(N2CCN(CCS(C)(=O)=O)CC2)c(C)cc1Nc1nccc(-c2oc(N3CCCC3)nc2-c2cccc(NS(=O)(=O)c3c(F)cccc3F)c2)n1`, the IC50 is reported as 100 to 1000 nM. With `COc1cc(N2CCC(N3CCN(CCS(C)(=O)=O)CC3)CC2)ccc1Nc1nccc(-c2sc(C(C)C)nc2-c2cccc(NS(=O)(=O)c3c(F)cccc3F)c2)n1` the IC50 was less than 100 nM. For `CC(C)c1nc(-c2cccc(NS(=O)(=O)c3c(F)cccc3F)c2)c(-c2ccnc(Nc3cccc(N4CCN(C)CC4)c3)n2)s1`, the IC50 was less than 100 nM. `COc1ccc(Nc2nccc(-c3sc(C(C)C)nc3-c3cccc(NS(=O)(=O)c4c(F)cccc4F)c3)n2)cc1N(C)C` showed an IC50 of less than 100 nM. `COc1cc2c(cc1Nc1nccc(-c3sc(C(C)C)nc3-c3cccc(NS(=O)(=O)c4c(F)cccc4F)c3)n1)N(C(=O)CN(C)C)CC2` was tested, and the IC50 was 100 to 1000 nM. Compound `COc1cc(N2CCN(CCS(C)(=O)=O)CC2)c(C)cc1Nc1nccc(-c2sc(C(C)C)nc2-c2cc(NS(=O)(=O)c3c(F)cccc3F)ccc2F)n1` has an IC50 of 100 to 1000 nM. `O=S(=O)(Nc1cccc(-c2ncsc2-c2ccnc(Nc3ccc(N4CCOCC4)nc3)n2)c1)c1c(F)cccc1F` was tested, and the IC50 was 100 to 1000 nM. `Nc1nc(-c2cccc(NS(=O)(=O)c3c(F)cccc3F)c2)c(-c2ccnc(Nc3ccc(N4CCOCC4)nc3)n2)s1` was tested, and the IC50 was 100 to 1000 nM. In the case of `CCNc1nc(-c2cccc(NS(=O)(=O)c3c(F)cccc3F)c2)c(-c2ccnc(Nc3ccc(N4CCOCC4)nc3)n2)s1`, the IC50 is reported as 100 to 1000 nM. Compound `CCc1nc(-c2cccc(CNS(=O)(=O)c3ccccc3)c2)c(-c2ccnc(Nc3ccc(N4CCN(CCS(C)(=O)=O)CC4)c(F)c3)n2)s1` has an IC50 of 100 to 1000 nM.
